According to the NIST ThermoML archive (doi:10.1016/j.jct.2013.08.030):
± gives the expanded uncertainty stated by the source.

Experiment: activity coefficient (dimensionless); of the first substance listed, at infinite dilution; xn = mol fraction of the nth substance listed
Conditions: 101 kPa, Liquid, Chromatography, x1 = 0

Compound | activity coefficient (318.15 K) | activity coefficient (328.15 K) | activity coefficient (338.15 K) | activity coefficient (348.15 K) | activity coefficient (358.15 K) | activity coefficient (368.15 K)
CC(C)(C)O [2-methylpropan-2-ol] + CCCC[N+]1(C)CCOCC1.N#C[C-](C#N)C#N | 2 ± 0.14 | 1.88 ± 0.13 | 1.77 ± 0.12 | 1.69 ± 0.11 | 1.63 ± 0.11 | 1.58 ± 0.1
CCC(C)CC [3-methylpentane] + CCCC[N+]1(C)CCOCC1.N#C[C-](C#N)C#N | 51.3 ± 3.5 | 46 ± 3.1 | 42.3 ± 2.9 | 38.9 ± 2.7 | 36.3 ± 2.5 | 33.5 ± 2.3
C=C(C)c1ccccc1 [(1-methylethenyl)benzene] + CCCC[N+]1(C)CCOCC1.N#C[C-](C#N)C#N | 2.8 ± 0.19 | 2.89 ± 0.2 | 2.99 ± 0.2 | 3.07 ± 0.21 | 3.15 ± 0.21 | 3.22 ± 0.22
CC(C)=O [acetone] + CCCC[N+]1(C)CCOCC1.N#C[C-](C#N)C#N | 0.741 ± 0.049 | 0.75 ± 0.049 | 0.765 ± 0.05 | 0.774 ± 0.051 | 0.791 ± 0.051 | 0.798 ± 0.052
CC#N [acetonitrile] + CCCC[N+]1(C)CCOCC1.N#C[C-](C#N)C#N | 0.617 ± 0.043 | 0.62 ± 0.043 | 0.624 ± 0.043 | 0.624 ± 0.043 | 0.629 ± 0.043 | 0.63 ± 0.044
c1ccccc1 [benzene] + CCCC[N+]1(C)CCOCC1.N#C[C-](C#N)C#N | 1.53 ± 0.1 | 1.55 ± 0.1 | 1.57 ± 0.1 | 1.58 ± 0.1 | 1.61 ± 0.11 | 1.62 ± 0.11
CCCCO [butan-1-ol] + CCCC[N+]1(C)CCOCC1.N#C[C-](C#N)C#N | 2.18 ± 0.15 | 2.04 ± 0.14 | 1.91 ± 0.13 | 1.79 ± 0.12 | 1.7 ± 0.11 | 1.61 ± 0.11
CCC(C)O (stereo not drawn) [butan-2-ol] + CCCC[N+]1(C)CCOCC1.N#C[C-](C#N)C#N | 2.05 ± 0.14 | 1.93 ± 0.13 | 1.81 ± 0.12 | 1.71 ± 0.11 | 1.64 ± 0.11 | 1.58 ± 0.1
CCCC=O [butanal] + CCCC[N+]1(C)CCOCC1.N#C[C-](C#N)C#N | 1.2 ± 0.08 | 1.24 ± 0.08 | 1.26 ± 0.08 | 1.3 ± 0.08 | 1.33 ± 0.09 | 1.35 ± 0.09
C1CCCCCC1 [cycloheptane] + CCCC[N+]1(C)CCOCC1.N#C[C-](C#N)C#N | 28.1 ± 1.9 | 26 ± 1.8 | 24 ± 1.6 | 22.5 ± 1.5 | 21 ± 1.4 | 19.7 ± 1.3
C1CCCCC1 [cyclohexane] + CCCC[N+]1(C)CCOCC1.N#C[C-](C#N)C#N | 22.6 ± 1.5 | 20.8 ± 1.4 | 19.3 ± 1.3 | 18 ± 1.2 | 16.9 ± 1.2 | 16 ± 1.1
C1=CCCCC1 [cyclohexene] + CCCC[N+]1(C)CCOCC1.N#C[C-](C#N)C#N | 9.44 ± 0.64 | 9.08 ± 0.62 | 8.71 ± 0.59 | 8.46 ± 0.58 | 8.16 ± 0.56 | 7.92 ± 0.54
C1CCCCCCC1 [cyclooctane] + CCCC[N+]1(C)CCOCC1.N#C[C-](C#N)C#N | 37 ± 2.5 | 34.1 ± 2.3 | 31.2 ± 2.1 | 29.1 ± 2 | 27 ± 1.8 | 25.1 ± 1.7
C1CCCC1 [cyclopentane] + CCCC[N+]1(C)CCOCC1.N#C[C-](C#N)C#N | 14.7 ± 1 | 13.7 ± 0.9 | 12.8 ± 0.9 | 12.1 ± 0.8 | 11.4 ± 0.8 | 10.9 ± 0.7
CCCCCCCCCC [decane] + CCCC[N+]1(C)CCOCC1.N#C[C-](C#N)C#N | 289 ± 20 | 251 ± 17 | 224 ± 15 | 202 ± 14 | 183 ± 13 | 166 ± 11
CCOCC [diethyl ether] + CCCC[N+]1(C)CCOCC1.N#C[C-](C#N)C#N | 5.39 ± 0.37 | 5.33 ± 0.36 | 5.27 ± 0.36 | 5.24 ± 0.36 | 5.21 ± 0.36 | 5.16 ± 0.35
CC(C)OC(C)C [diisopropyl ether] + CCCC[N+]1(C)CCOCC1.N#C[C-](C#N)C#N | 17.8 ± 1.2 | 17.4 ± 1.2 | 16.8 ± 1.1 | 16.5 ± 1.1 | 16 ± 1.1 | 15.6 ± 1.1
CCCOCCC [dipropyl ether] + CCCC[N+]1(C)CCOCC1.N#C[C-](C#N)C#N | 16.4 ± 1.1 | 15.9 ± 1.1 | 15.4 ± 1.1 | 14.9 ± 1 | 14.4 ± 1 | 13.9 ± 1
